# Test results published in patent publication US20220091133A1, “METHODS AND ASSAYS FOR IMMUNE PHENOTYPING” (Washington University, priority 2020, published 2022).
# “And” between values parts separate entries of the source, which are not always exact repeats. Identical values can stand only once. Starred links: 1 amine or outer side, 2 acyl side, 3 side chain; linkers in the order of their positions; H or OH if unused. Positions of bridges follow the written chain, without caps; N, C: chain ends. Non-standard residues stand in square brackets, D forms with d. Residues, ends and D or L forms follow the SMILES beside them. *: point of attachment. hTyr(3S-OH,4S-OH,3'-OSO3H) = N[C@H](C(=O)O)[C@H](O)[C@@H](O)c1ccc(O)c(OS(=O)(=O)O)c1; Orn(4R-OH,5R-OH) = O=C([C@H](C[C@@H](O)[C@@H](O)N[*:3])N[*:1])[*:2]; Pro(3S-OH,4S-Me) = C[C@H]1CN[C@H](C(=O)O)[C@H]1O; X1 = CCCCCOc1ccc(-c2cc(-c3ccc(C(=O)*)cc3)no2)cc1; Gln(3R-OH) = NC(=O)C[C@@H](O)[C@H](N)C(=O)O; Hyp = O=C(O)[C@@H]1C[C@@H](O)CN1
# Key:
# [1] = test system: Trichosporon asahii and Saksenaea species; assay: Tissue, wound, blood and bone cultures of the fungal wound sepsis patient; assay type: in vivo, human; conditions: posaconazole, amphotericin B and micafungin together, before IL-7
# Source text: They were aggressively treated with daily or alternating-day operative debridement, broad-spectrum parenteral and topical antibacterial and antifungal therapy. Antimicrobial therapy included ceftazidime, metronidazole, trimethoprim-sulfamethoxazole, micafungin, amphotericin B, and posaconazole (FIG. 29), as well as VERAFLO vac instillation of antimicrobials into the wound bed. The patient's polymicrobial soft tissue infection continued to advance and was accompanied by multisystem organ failure and shock. Over a 4-week period, they required debridement of >3000 cm^2 of skin, subcutaneous tissue, and muscle involving the entire perineum, bilateral thighs, buttocks, and circumferential abdominal wall (FIG. 28B).
# Tissue histology also became negative for fungus at approximately the same time as tissue cultures (FIG. 28E).
# Saksenaea isolate = assay: CLSI broth dilution antifungal susceptibility testing; conditions: Saksenaea isolate from patient wound, CLSI broth dilution reference method
# mucormycosis = conditions: nivolumab (anti-PD-1) and IFN-γ together, Belgian bomb blast victim, reference 5; cited from earlier work
# [2] = test system: peripheral blood mononuclear cells (T cell IFN-γ production); assay type: cell-based, human
Compound,wound cultures for Trichosporon asahii and Saksenaea species despite triple antifungal therapy [1],Drug sensitivities (Saksenaea isolate),other results
"CCCCCOc1ccc(-c2cc(-c3ccc(C(=O)N[C@H]4C[C@@H](O)[C@@H](O)NC(=O)[C@@H]5[C@@H](O)[C@@H](C)CN5C(=O)[C@H]([C@H](O)CC(N)=O)NC(=O)[C@H]([C@H](O)[C@@H](O)c5ccc(O)c(OS(=O)(=O)O)c5)NC(=O)[C@@H]5C[C@@H](O)CN5C(=O)[C@H]([C@@H](C)O)NC4=O)cc3)no2)cc1 [micafungin] (X1-[Orn(4R-OH,5R-OH)]T[Hyp][hTyr(3S-OH,4S-OH,3'-OSO3H)][Gln(3R-OH)][Pro(3S-OH,4S-Me)]; lactam 1-C)",persistently positive,–,–
CC[C@@H]([C@H](C)O)n1ncn(-c2ccc(N3CCN(c4ccc(OC[C@@H]5CO[C@@](Cn6cncn6)(c6ccc(F)cc6F)C5)cc4)CC3)cc2)c1=O [posaconazole],persistently positive,0.25 µg/mL,–
IFN-γ: interferon-γ given as immune-adjuvant therapy,–,–,"outcome of immune-adjuvant therapy in refractory mucormycosis (mucormycosis): rapid clinical improvement, enhanced immune phenotypic markers, and fungal elimination"
nivolumab [reference compound],–,–,"outcome of immune-adjuvant therapy in refractory mucormycosis (mucormycosis): rapid clinical improvement, enhanced immune phenotypic markers, and fungal elimination"
C[C@@H]1[C@H](O)[C@@H](C)/C=C/C=C/C=C/C=C/C=C/C=C/C=C/[C@H](O[C@@H]2O[C@H](C)[C@@H](O)[C@H](N)[C@@H]2O)C[C@@H]2O[C@](O)(C[C@@H](O)C[C@@H](O)[C@H](O)CC[C@@H](O)C[C@@H](O)CC(=O)O[C@H]1C)C[C@H](O)[C@H]2C(=O)O [amphotericin B],persistently positive,< 0.03 µg/mL,–
"C[C@@H]1C[C@H]2[C@@H]3CCC4=CC(=O)C=C[C@]4(C)[C@@]3(F)[C@@H](O)C[C@]2(C)[C@@]1(O)C(=O)COP(=O)(O)O [dexamethasone, dexamethasone phosphate]",–,–,decrease in IFN-γ production (ELISpot total well intensity) [2]: 61% and 58%; reduction in the number of IFN-γ secreting cells [2]: 30% and 49%
C[C@@H](c1nc(-c2ccc(C#N)cc2)cs1)[C@](O)(Cn1cncn1)c1cc(F)ccc1F [isavuconazole],–,1 µg/mL,–
